Data taken from a melting point compilation (Tetko et al.; mined from patent text by program, amines drawn as free bases though some values may be those of a salt).

Row | Structure (SMILES) | melting point [°C]
1 | COc1cc(-c2nc3ccccc3n2Cc2ccc(Cl)cc2)cc(OC)c1OC | 169
2 | Cc1c(N2C[C@@H]3[C@@H](O)CCN3C2=O)ccc(C#N)c1Cl | 148 to 149
3 | CCc1nn(C(=O)OC(C)(C)C)c2cc(-c3ccc4nnn(Cc5ccc6ncccc6c5)c4n3)ccc12 | 185 to 188
4 | O=C1Nc2ccccc2C1C(=O)c1cccnc1 (stereo unspecified) | 169 to 170
5 | Cn1c(=O)oc(=O)c2ccc(F)cc21 | 158 to 160
6 | CCCCCCNC(=O)[C@H](C)C[C@H](O)[C@H](CC1CCCCC1)NC(=O)[C@H](Cc1cscn1)NC(=O)OC(C)(C)C | 156 to 158
7 | COc1cc(C(C)C)c2c(c1)S(=O)(=O)N(COC(=O)c1ccsc1)C2=O | 125 to 127
8 | CCCCCCC(=O)CCCCCCCC(COC(C)=O)(COC(C)=O)NC(C)=O | 88 to 89
9 | CCOc1ccc2[nH]c(=O)sc2c1 | 147
10 | Cc1c(-c2ccccc2)[nH]c(=O)n1C1CCN(Cc2cccc(C(F)(F)F)c2)CC1 | 243
11 | CCCCCCCCCCCCCCCCNc1ccc(C(=O)NCCS(=O)(=O)O)cc1 | 190 to 220
12 | CCOC(=O)C1=C(C)NC(=O)N(C(=O)OCC)C1c1cccc([N+](=O)[O-])c1Cl (stereo unspecified) | 176 to 178
13 | CON(c1ccc([N+](=O)[O-])cc1Cl)S(=O)(=O)c1cccc(C(F)(F)F)c1 | 95.5 to 96.5
14 | CC1Oc2ccc(CN3CC=C(c4ccccc4)CC3)cc2NC1=O (stereo unspecified) | 248 to 255
15 | O=c1cc(-c2nc3ccccc3[nH]2)oc2ccc(Cl)cc12 | 248 to 250
16 | O=C(C#Cc1ccc(Br)cc1)Nc1ccccc1 | 159 to 160
17 | CC(C)N(O)C(=O)Nc1cccc(S(C)=O)c1 (stereo unspecified) | 135 to 136
18 | CCOP(=O)(/C=C/c1cn(-c2ccccc2)nc1OCc1ccc(OCc2nc(-c3ccco3)oc2C)c(OC)c1)OCC | 60 to 63
19 | Cc1cccnc1NC(=O)CN1C[C@@H](C)N(c2ncnc3sccc23)[C@@H](C)C1 | 157 to 159
20 | C[C@@H]1CN(c2c(F)c(N)c3c(=O)c(C(=O)O)cn(C4CC4)c3c2F)C[C@H]1N (relative stereo) | 234 to 236
21 | CN1CCN(c2cc3nc(C(C)(C)C)sc3cc2N)CC1 | 130
22 | Fc1ccc(-c2ncn(CCCN3CCOCC3)c2-c2ccnc(Cl)c2)cc1 | 97 to 97.5
23 | CC(C)C1SCC(=O)CC1=O (stereo unspecified) | 71
24 | Cc1ncc2c(c1OCC(=O)O)COC2(C)c1ccc(F)cc1 (stereo unspecified) | 184 to 186

Row | Structure (SMILES) | melting point [°C]
25 | O=C(O)C1(NS(=O)(=O)c2ccc3oc4cc(Br)ccc4c3c2)CCCC1 | 177 to 178
26 | O=C(O)C1CCCc2c(OCc3ccccc3)cccc21 (stereo unspecified) | 145 to 146
27 | N#Cc1ccc(NC(=O)NC(=O)c2ccccc2F)c(Cl)c1Cl | 298 to 300
28 | CCCc1nccn1-c1nc(-c2ccc(Cl)cc2)c(CCCOc2ccccc2OC)o1 | 89 to 90
29 | C/C=C/C1CCC2c3ccc(OCC)c(F)c3OC2C1 (stereo unspecified) | 145
30 | CCOC(=O)Nc1ccc(N2CCN([C@H](C)[C@](O)(Cn3cncn3)c3ccc(F)cc3F)CC2)cc1 | 90 to 92
31 | CC(C)CCC(O)C(CC1CCCCC1)NC(=O)C(Cc1c[nH]cn1)N(C)C(=O)C(Cc1ccccc1)OC(=O)N1CCOCC1 (stereo unspecified) | 91 to 95
32 | CSc1cc2c(cc1C(F)(F)F)N(C(=O)Nc1cccc(C(=O)NN3CCC(N(C)C)C3)c1)CC2 (stereo unspecified) | 114 to 116
33 | CC(=O)c1ccc(OCCCBr)c(C)c1 | 59 to 61
34 | Fc1ccccc1-c1ncn(CCCCN2CCOCC2)c1-c1ccncc1 | 103 to 104
35 | Oc1ccc(-c2cn(-c3ccc(C(F)(F)F)cc3F)nn2)cc1 | 215 to 216
36 | COc1nc(-c2cc(C)c(OCCCc3cc(C)no3)c(C)c2)no1 | 64.5 to 65.5
37 | CN1CCC(OC2c3ccccc3CC(C)(C)n3cc(-c4ccccc4)nc32)CC1 (stereo unspecified) | 85
38 | CC(=O)NC1C(NC(=NC(=O)OC(C)(C)C)NC(=O)OC(C)(C)C)C=C(C(=O)OCCCO)OC1C(O)C1COC(C)(C)O1 (stereo unspecified) | 86 to 88
39 | COC(=O)C(C)(C)CCCN1CCN(C(=O)C=Cc2ccccc2)CC1 | 76
40 | CN1CCN(C(=O)c2ccc(-c3cnc4c(c3)N(C(=O)c3cc(F)ccc3F)CCN4)cc2)CC1 | 201 to 203
41 | c1csc(-c2ccc(-c3cc4ncnc(Nc5ccc6[nH]ccc6c5)c4s3)cc2)c1 | 165 to 178
42 | CCSc1sc(C#N)c(N(C)C(C)=O)c1C#N | 68
43 | CNC(=O)c1ccc(C(=O)O)cc1 | 270
44 | O=C(O)c1cc(=O)cc(C=Cc2ccccc2)o1 | 227 to 228
45 | CCN(CC)CCNC(=O)c1c(I)ccc2c1Nc1ccccc1C2 | 106 to 108
46 | OCCc1c(-c2ccccc2)n2nnnc2n2ncnc12 | 110
47 | CCNCCCN1c2ccccc2N(C)C(=O)c2c(C)cc(C)nc21 | 101 to 103
48 | Cc1ccc(-c2c(C(=O)Nc3nccs3)nc(-c3cccc4ccccc34)n2CCN2CCOCC2)cc1 | 226 to 227

Row | Structure (SMILES) | melting point [°C]
49 | Oc1cc(O)cc(CN/C=C2\CN=Cc3ccc(Br)cc32)c1 | 263 to 264
50 | COc1ccc2c(c1)c(CC(=O)N(C)O)c(C)n2C(=O)c1ccc(Cl)cc1 | 170 to 171
51 | COCC1CN(c2ccc(C3CCC(O)CC3)cc2)C(=O)O1 (racemic) | 109 to 110
52 | O=C(O)CCc1ccc(Cl)cc1F | 83 to 85
53 | Cc1cc(OCC(=S)Nc2cccc(C(=O)O)c2)ccc1C(C)C | 174 to 176
54 | COc1cccc(Oc2c(NS(=O)(=O)c3ccc(C(C)(C)C)cc3)nc(C)nc2OCCO)c1 | 139
55 | CC(C)(C)c1cc(Cc2nc3cc(Cl)cc(Br)c3o2)cc(C(C)(C)C)c1O | 133 to 136
56 | Oc1ccc(Br)cc1C=Nc1cc(Cl)cc(Cl)c1 | 161 to 163
57 | FC(F)(F)c1nc(Cl)c(-c2ccccc2)c(-c2ccccc2)n1 | 105 to 107
58 | COc1ccc(-c2ocnc2-c2cc(OC)c(F)c(OC)c2)cc1N | 140 to 142
59 | CCOC(=O)c1c(C(F)F)nc(C(F)(F)F)c(C(=O)OCC)c1N | 29 to 30
60 | CNc1cc(Oc2ccc3c(c2)CCCN3C(=O)Nc2ccc(C(C)(C)C)cc2)ncn1 | 175 to 176
61 | CN1CC(=O)N(C(c2ccccc2)c2ccccc2)C1=S | 139 to 141
62 | c1ccc(CSc2nc3cnccc3[nH]2)cc1 | 175 to 177
63 | C(=Cc1ccccc1)C=Nc1ccc(Cc2ccc(N=CC=Cc3ccccc3)cc2)cc1 | 162 to 164
64 | Nc1ccc(-c2noc(-c3cnn4c(C(F)(F)F)cc(-c5ccc(C(F)(F)F)c(OCC(F)(F)F)c5)nc34)n2)cn1 | 284
65 | COc1ccc2sc3nc(CO)cn3c2c1 | 189 to 190
66 | CC(C)(C)c1nc(C=NO)ncc1O | 205 to 220
67 | NS(=O)(=O)c1ccc2[nH]cc(CCN3C(=O)c4ccccc4C3=O)c2c1 | 285 to 290
68 | O=C(NCCO)c1ccc([N+](=O)[O-])cc1 | 134 to 135
69 | CC1c2cccc3c2N(CC3)c2ccccc2N1C(=O)CBr (stereo unspecified) | 123 to 125
70 | Cc1coc2c1C(=O)CC(c1cccc(Cl)c1Cl)C2 (stereo unspecified) | 116 to 117
71 | O=C(NCCc1cccc2ccc(O)cc12)C1CC1 | 140 to 141
